Experimental data published in publication PMC12123366, “Effect of urea and squaramide IMPDH inhibitors on C. parvum: in vitro trial design impacts the assessment of drug efficacy” (International Journal for Parasitology: Drugs and Drug …, 2025).
Each block holds one compound with its values, some of them ahead of it.

Experiments:
[1] = system: C. parvum; set-up: method as in Funkhouser-Jones et al., 2020; conditions: ref Funkhouser-Jones et al., 2020; cited from earlier work
[2] = system: HCT-8 cells; experiment: CytoTox 96 Non-Radioactive Cytotoxicity Assay; type: cell-based, Human
Experimental: (§1) HCT-8 cell lines (Human ileocecal adenocarcinoma) were purchased from The European Collection of Authenticated Cell Cultures (ECACC) under catalogue number No 90032006) and maintained with regular subculturing in a growth medium consisting in a RPMI 1640 medium supplemented with 1 mM sodium pyruvate, 2 mM l-glutamine, 10 % (vol/vol) of heat-inactivated fetal calf serum, 100 U/mL of penicillin and 100 μg/mL of streptomycin. Cells were grown in an incubator at 37 °C with 5 % (vol/vol) CO2 until monolayers reached 80–90 % confluency. Cells were cultivated in 96-well format plate for molecular analysis and in Lab-Tek™ Chamber Slides for microscopic analysis. 50,000 cells were seeded and incubated during 24 h (until confluency) before infection.
(§2) The compounds (2 mg/mL in DMSO) were diluted to 500 μM and serially diluted in maintenance medium. The cytotoxicity of the compounds was assessed using the CytoTox 96® Non-Radioactive Cytotoxicity Assay (Promega, G1790) in accordance with the manufacturer's protocol.
(§3) An initial screening experiment was conducted on the full library to evaluate the cytotoxicity effects on HCT-8 cells. Nitrophenylurea 12 was identified as being cytotoxic so was not progressed further (See Supporting Information). In total, 21 candidates were assessed for their ability to inhibit C. parvum replication at a concentration of 10 μM. Each compound was added at the start of the infection of HCT-8 cells (T0) and remained in the culture for 48 h post infection (hpi). Parasitic quantification was then performed using a molecular method (qPCR). Of the 21 compounds tested, nine were effective inhibitors, reducing parasite proliferation by 80 % or more (Fig. 6). A clear trend emerged with all of the benzyl-substituted ureas 6–10 displaying poor inhibitory activity, regardless of the attached heteroaryl substituent. […] Two exceptions to this were imidazole-containing analogues 18 and 19. […] Among the squaramide series, the results were highly dependent on the nature of the substituent, ranging from high (e.g. ketone 29, furan 32), medium (e.g. 3-pyrazole 30) to low (e.g. 4-pyrazole 31) anti-cryptosporidial activity.

[3] = CytoTox 96 Non-Radioactive Cytotoxicity Assay; type: cell-based, Human; conditions: human; HCT-8 cells, 10 µM
Experimental: as §1, §2, §3

[4] = system: C. parvum; experiment: Inhibition of C. parvum replication in infected HCT-8 cells, parasite quantification by qPCR; type: cell-based, Cryptosporidium parvum (Iowa strain) in human HCT-8 cells; conditions: qPCR
Experimental: as §1
(§4) C. parvum oocysts of “Iowa” strain was purchased from Waterborne Inc. and stored in PBS at 4 °C. A ratio of one oocyst per cell was used to infect HCT-8 cell. Oocysts suspension was incubated with 10 % of a solution (vol/vol) containing 0.5 % sodium hypochlorite for 10 min at 4 °C. After a washing step by centrifugation at 1800g for 15 min at 4 °C, oocysts were incubated in acidified water (pH 2.4) containing 0.025 % (wt/vol) of trypsin, at 37 °C for 20 min, to trigger excystation (infectivity assay developed by [Keegan et al., 2003]). After a third centrifugation step at 1800 g for 10 min, oocysts were suspended in a maintenance medium. The maintenance medium consisted of RPMI 1640 medium with 2 mM l-glutamine, 5 mM glucose, 0.5 μM folic acid, 7 μM 4-amino-benzoic acid, 0.1 μM calcium pantothenate, 50 nM ascorbic acid, 2 % (vol/vol) heat inactivated fetal calf serum and 100 U/mL of streptomycin/penicillin. Before oocyst inoculation, the growth medium was switched with maintenance medium. Triggered oocysts were finally added on monolayers and incubated during 48 h at 37 °C in a 5 % (vol/vol) CO2 atmosphere.
as §2
The COWP gene (GenBank no. AF248743) was amplified by qPCR following the previously described protocol ([Guy et al., 2003]), and the parasitic concentration was determined using the standard range of C. parvum oocyst concentrations. Briefly, serial dilutions from a pure C. parvum oocyst suspension were made starting from a stock solution of 5 × 10^7 oocysts (4 × 10^5 – 2 × 10^5 – 1 × 10^5 – […]–2.5 × 10^3–1.25 × 10^3 oocysts) and the standard curve for quantifying parasites was created to obtain a correlation between Cq values and the Log of concentration.
At the end of the experiment, supernatants from the C. parvum-infected cell cultures were collected. The cell layers were then washed (1x PBS), detached using trypsin (0.25 %), and centrifuged (10,000×g, 10 min). The resulting cell pellet was re-suspended in 150–200 μL of sterile 1x PBS and stored at −20 °C for later DNA extraction. DNA extraction of C. parvum was performed using the Purelink™ Microbiome Purification Kit (Invitrogen™) following the manufacturer's protocol “Transport Media and Microbial Culture Samples” ([Invitrogen, 2015]).
FRePCR reactions were formulated to a volume of 25 μL and comprised of 1.25 μL of primers (10 μM), 0.05 μL probe (100 μM), 12.5 μL Master Mix 2X, LightCycler 480 Probes Master (ref. 04707494001, Roche), 4.95 μL H2O nuclease-free and 5 μL of DNA template. Quantitative PCR was run on a CFX96 real time PCR system (BioRad) with an initial step of activation (10 min 95 °C) following by 40 cycles with cycling conditions as follows: 95 °C for 10 s, 60 °C for 1 min. BioRad CFX manager software was used to analyse the data. Samples were considered negative if Cq ≥ 40.
A common way of defining a 50 % response is to use a mathematical model like the 4-parameter logistic model (4 PL) ([Sebaugh, 2011]). […]

[5] = system: C. parvum; experiment: Quantification of C. parvum development in HCT-8 cells by immunofluorescence microscopy; type: cell-based, Cryptosporidium parvum (Iowa strain) in human HCT-8 cells; conditions: for reduction in parasite quantification: 7.5 μM
Experimental: as §1, §4
After aspiration of the supernatant from the Nunc™ Lab-Tek™ Chamber slide wells, cells were rinsed with PBS 1X. A fixation step was then performed using methanol during 8 min at 4 °C. Cryptosporidium developmental forms were labelled with a polyclonal IgG antibodies reaction kit tagged with Cy3 (Sporo-Glo™, Waterborne Inc.) and oocysts were labelled with FL-Crypt-a-Glo™, a fluorescein-labelled mouse monoclonal antibody made to oocyst outer wall antigenic sites (epitopes) of C. parvum. Antibodies were 1/20th diluted and incubated on cells for 1 h at room temperature. DNA was labelled with Hoechst for 5 min at room temperature. Slides were then coverslipped with a no fading mounting medium (Waterborne Inc.) and observed with a Leica DMi8 microscope. Each dilution was performed in triplicate and, for each well, ten images were taken at 400× magnification. Parasite quantification was carried out automatically using the StarDist neural network, which was specifically trained to detect and quantify C. parvum parasites.
To confirm our initial findings, we employed an alternative method using immunofluorescence microscopy to quantify C. parvum development in the presence of inhibitors (Fig. S1). […] The results corroborated our initial screening data, confirming the high efficacy of all tested chloronitrophenyl urea analogues, except for imidazole derivatives 18 and 19.
To test this hypothesis, increasing concentrations of squaramide 32 (i.e. 0, 2, 4 and 8 μM) were applied at different infection times: at 0 hpi (hours post infection), to assess the impact on parasite invasion; at 4 hpi, to examine the effect on the early stages of intracellular development; and at 30 hpi, to evaluate the influence on late stage intracellular development. The microscopic images in Fig. 7 illustrate the effect of 32 when applied at the onset of infection and at 30 hpi. Using fluorescent antibodies, the intracellular development of C. parvum is highlighted by green fluorescence, which allows for quantification of the number of parasites per image.

[6] = system: Cryptosporidium; conditions: cited from earlier work

SMILES: COc1ccc(NC(=O)N2CCCCN3[C@H](CN(C)C)[C@H](c4ccc(C#Cc5ccccc5)cc4)[C@@H]3C2)cc1 [BRD7929]
stage-specific effect on C. parvum development (in words) [1]: blocks nuclear division and arrest development at the trophozoite

SMILES: CC(C)(NC(=O)Nc1ccc(Cl)c([N+](=O)[O-])c1)c1cccc(-c2cccc([N+](=O)[O-])c2)c1 [Compound 12, 1-(4-chloro-3-nitrophenyl)-3-(2-(3′-nitro-[1,1′-biphenyl]-3-yl)propan-2-yl)urea]
cytotoxicity (in words) ([2]; initial screening): cytotoxic
viability at 10 µM [3]: 58%

IC50 ([4]; compounds at 0, 3, 6 and 9 μM added at t0 and left until 48 hpi, read-out: IC50): 2200 nM
SMILES: CC(C)(Nc1c(Nc2ccc(Cl)c([N+](=O)[O-])c2)c(=O)c1=O)c1cccc(-c2ccco2)c1 [Compound 32, (2-((4-Chloro-3-nitrophenyl)amino)-3-((2-(3-(furan-2-yl)phenyl)propan-2-yl)amino)-4-oxocyclobut-2-en-1-ylidene)oxonium]
anti-cryptosporidial activity (in words) ([4]; 10 μM, added at T0, 48 hpi): high
inhibition rate of C. parvum replication ([4]; 10 μM, added at start of infection (T0), 48 hpi, mean ± SD (n = 3 wells)): 87.2 ± 0.8%
Viability ([2]; 10 µM): 94.94%
effect on intracellular development (green fluorescence) ([5]; 2 μM, applied at onset of infection (0 hpi)): significantly reduces green fluorescence
effect on distribution of parasite area ([5]; 7.5 μM or 15 μM, added at 30 hpi until 48 hpi): decreases the prevalence of both small and large parasites
reduction in parasite quantification ([5]; added at 0 hpi, fluorescence microscopy): > 80%
reduction in parasite quantification ([5]; added at 30 hpi, until 48 hpi, fluorescence microscopy): 46%
reduction of parasite load ([5]; 8 μM, added at 30 hpi, 18 h of treatment, fluorescence microscopy): < 50%

SMILES: CNC(=O)c1ccc(-c2cnc3cnc(C(=O)N(C)c4ccc(Cl)cc4)cn23)cc1 [KDU691]
stage-specific effect on C. parvum development (in words) [1]: effective at later stages

SMILES: CC(=O)Oc1ccccc1C(=O)Nc1ncc([N+](=O)[O-])s1 [nitazoxanide]
efficacy in immunocompromised patients (in words) ([6]; even when administered in high doses, ref Rossignol et al., 1998): ineffective
efficacy in children (in words) ([6]; ref Amadi et al., 2002): limited
